Test results from US11078197B2, “5-membered and bicyclic heterocyclic amides as inhibitors of rock” (BRISTOL-MYERS SQUIBB COMPANY, priority 2017, dated 2021).

target: ROCK2 (Homo sapiens (Human), UniProt O75116); assay: ROCK2 assay (peptide phosphorylation, LABCHIP 3000 Reader); assay type: biochemical; details: 5 μM ATP, 1.5 μM peptide substrate, dose-response
Method: After incubation, the reaction was terminated by the addition of EDTA and the phosphorylated and non-phosphorylated peptides separated using a LABCHIP®3000 Reader (Caliper Life Sciences). […] Compounds were tested in dose-response format, and the inhibition of kinase activity was calculated at each concentration of compound. […] Representative Examples were tested in the ROCK2 assay described above and found having ROCK2 inhibitory activity.

Chain of ROCK2 (O75116 whole entry, species assumed): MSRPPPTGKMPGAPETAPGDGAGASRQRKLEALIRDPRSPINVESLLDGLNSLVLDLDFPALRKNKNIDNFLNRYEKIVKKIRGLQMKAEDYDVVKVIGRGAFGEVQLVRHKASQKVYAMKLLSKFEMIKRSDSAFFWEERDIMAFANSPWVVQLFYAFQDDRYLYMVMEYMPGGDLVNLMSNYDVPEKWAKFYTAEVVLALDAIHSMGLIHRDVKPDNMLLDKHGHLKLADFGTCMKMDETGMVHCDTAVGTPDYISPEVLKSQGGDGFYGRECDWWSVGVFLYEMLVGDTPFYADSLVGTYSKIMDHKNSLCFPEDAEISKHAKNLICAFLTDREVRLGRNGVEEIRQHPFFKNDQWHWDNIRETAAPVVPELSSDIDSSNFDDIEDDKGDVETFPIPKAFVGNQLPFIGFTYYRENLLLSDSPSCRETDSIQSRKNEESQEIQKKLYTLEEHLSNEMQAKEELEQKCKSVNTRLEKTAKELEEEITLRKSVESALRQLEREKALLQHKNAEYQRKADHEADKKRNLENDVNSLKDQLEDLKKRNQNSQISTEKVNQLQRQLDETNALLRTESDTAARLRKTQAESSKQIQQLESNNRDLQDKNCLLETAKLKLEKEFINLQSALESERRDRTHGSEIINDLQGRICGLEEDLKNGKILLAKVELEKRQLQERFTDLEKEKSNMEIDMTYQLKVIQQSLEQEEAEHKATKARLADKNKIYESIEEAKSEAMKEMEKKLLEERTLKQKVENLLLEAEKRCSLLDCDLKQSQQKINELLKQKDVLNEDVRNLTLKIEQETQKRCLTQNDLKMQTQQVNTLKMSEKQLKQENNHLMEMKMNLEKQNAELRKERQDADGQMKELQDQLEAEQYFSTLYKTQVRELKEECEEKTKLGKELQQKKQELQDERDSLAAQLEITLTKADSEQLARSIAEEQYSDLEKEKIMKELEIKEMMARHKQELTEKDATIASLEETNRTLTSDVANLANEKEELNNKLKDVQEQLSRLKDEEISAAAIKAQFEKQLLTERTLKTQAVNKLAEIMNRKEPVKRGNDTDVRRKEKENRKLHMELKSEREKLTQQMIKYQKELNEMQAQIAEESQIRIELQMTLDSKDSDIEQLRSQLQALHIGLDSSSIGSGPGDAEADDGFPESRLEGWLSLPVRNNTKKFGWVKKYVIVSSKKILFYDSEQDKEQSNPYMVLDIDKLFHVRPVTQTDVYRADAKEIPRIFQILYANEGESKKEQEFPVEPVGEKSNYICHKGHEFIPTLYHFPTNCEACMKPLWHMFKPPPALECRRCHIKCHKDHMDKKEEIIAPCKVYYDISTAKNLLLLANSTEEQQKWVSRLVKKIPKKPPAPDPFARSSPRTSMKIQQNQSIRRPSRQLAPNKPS

| Structure (SMILES) | IC50 [nM] |
| --- | --- |
| Cc1c(C(=O)N[C@H]2C[C@]3(C2)C[C@H](Oc2nn4ccccc4c2C(N)=O)C3)cnn1-c1ccc(C#N)cc1 (stereo partly shown) [Example 118, 1-(4-cyanophenyl)-5-methyl-N-[(4s)-6-({3-carbamoylpyrazolo[1,5-a]pyridin-2-yl}oxy)spiro[3.3]heptan-2-yl]-1H-pyrazole-4-carboxamide] | 639 |
| Cc1c(C(=O)N[C@H]2C[C@]3(C2)C[C@H](Oc2nn4ccccc4c2C(N)=O)C3)cnn1-c1ccc(Cl)cc1 (stereo partly shown) [Example 119, 1-(4-chlorophenyl)-5-methyl-N-[(4s)-6-({3-carbamoylpyrazolo[1,5-a]pyridin-2-yl}oxy)spiro[3.3]heptan-2-yl]-1H-pyrazole-4-carboxamide] | 351 |
| Cc1c(C(=O)N[C@H]2C[C@]3(C2)C[C@H](Oc2nn4ccccc4c2C(N)=O)C3)cnn1-c1ccc(C(F)(F)F)cn1 (stereo partly shown) [Example 120, 5-methyl-N-[(4s)-6-({3-carbamoylpyrazolo[1,5-a]pyridin-2-yl}oxy)spiro[3.3]heptan-2-yl]-1-[5-(trifluoromethyl)pyridin-2-yl]-1H-pyrazole-4-carboxamide] | 805 |
| CC(C)(O)COc1ccc2c(C(=O)N[C@H]3C[C@]4(C3)C[C@H](Oc3nn5ccccc5c3C(N)=O)C4)nn(C(F)F)c2c1 (stereo partly shown) [Example 121, 1-(difluoromethyl)-6-(2-hydroxy-2-methylpropoxy)-N-[(4s)-6-({3-carbamoylpyrazolo[1,5-a]pyridin-2-yl}oxy)spiro[3.3]heptan-2-yl]-1H-indazole-3-carboxamide] | 18.3 |
| COc1ccc2c(C(N)=O)c(O[C@H]3C[C@@]4(C[C@H](NC(=O)c5nn(C(F)F)c6cc(OCC(C)(C)O)ccc56)C4)C3)nn2c1 (stereo partly shown) [Example 124, 1-(difluoromethyl)-6-(2-hydroxy-2-methylpropoxy)-N-[(4s)-6-({3-carbamoyl-6-methoxypyrazolo[1,5-a]pyridin-2-yl}oxy)spiro[3.3]heptan-2-yl]-1H-indazole-3-carboxamide] | 90.4 |
| Cc1ccc2c(C(N)=O)c(O[C@H]3C[C@@]4(C[C@H](NC(=O)c5nn(C(F)F)c6cc(OCC(C)(C)O)ccc56)C4)C3)nn2c1 (stereo partly shown) [Example 126, 1-(difluoromethyl)-6-(2-hydroxy-2-methylpropoxy)-N-[(4s)-6-({3-carbamoyl-6-methylpyrazolo[1,5-a]pyridin-2-yl}oxy)spiro[3.3]heptan-2-yl]-1H-indazole-3-carboxamide] | 46.4 |

Further compounds by falling IC50, results first:

| IC50 [nM] | Structure (SMILES) |
| --- | --- |
| 316 | COc1ccc2c(C(N)=O)c(O[C@H]3C[C@@]4(C[C@H](NC(=O)c5cnn6cc(OCC(F)F)ccc56)C4)C3)nn2c1 (stereo partly shown) [Example 125, 6-methoxy-2-{[(4s)-6-[6-(2,2-difluoroethoxy)pyrazolo[1,5-a]pyridine-3-amido]spiro[3.3]heptan-2-yl]oxy}pyrazolo[1,5-a]pyridine-3-carboxamide] |
| 241 | NC(=O)c1c(O[C@H]2C[C@@]3(C[C@H](NC(=O)c4cnn5cc(OCC(O)(C(F)(F)F)C(F)(F)F)ccc45)C3)C2)nn2ccccc12 (stereo partly shown) [Example 123, 2-{[(4s)-6-{6-[3,3,3-trifluoro-2-hydroxy-2-(trifluoromethyl)propoxy]pyrazolo[1,5-a]pyridine-3-amido}spiro[3.3]heptan-2-yl]oxy}pyrazolo[1,5-a]pyridine-3-carboxamide] |
| 117 | NC(=O)c1c(O[C@H]2C[C@@]3(C[C@H](NC(=O)c4cnn5cc(OCC(F)F)ccc45)C3)C2)nn2ccccc12 (stereo partly shown) [Example 122, 2-{[(4s)-6-[6-(2,2-difluoroethoxy)pyrazolo[1,5-a]pyridine-3-amido]spiro[3.3]heptan-2-yl]oxy}pyrazolo[1,5-a]pyridine-3-carboxamide] |
| 58.7 | COc1nc(O[C@H]2C[C@@]3(C[C@H](NC(=O)c4cnn5cc(OCC(F)(F)F)ccc45)C3)C2)c(C(N)=O)s1 (stereo partly shown) [Example 117, 2-methoxy-4-{[(4s)-6-[6-(2,2,2-trifluoroethoxy)pyrazolo[1,5-a]pyridine-3-amido]spiro[3.3]heptan-2-yl]oxy}-1,3-thiazole-5-carboxamide] |
